The values below come from patent US11352350B2, “IRAK degraders and uses thereof” (Kymera Therapeutics, Inc., priority 2018, dated 2022).

The test system of one experiment is OCI-LY10 tumor cells. Put plainly: OCI-LY10 large B lymphoma xenograft model in C.B. 17 SCID mice. The format is in vivo, mouse. The method, then:
Cell Culture: The OCI-LY10 or TMD8 tumor cells were maintained as suspension in RPMI1640 medium supplemented with 10% fetal bovine serum, 100 U/mL penicillin and 100 μg/mL streptomycin at 37° C. in an atmosphere of 5% CO2 in air. The tumor cells were routinely subcultured twice weekly by trypsin-EDTA treatment. The cells growing in an exponential growth phase were harvested and counted for tumor inoculation.
Animals: C.B. 17 SCID, female, 6-8 weeks, weighing approximately 16-18 g were used. Animals were housed and maintained according to IACUC protocols.
Tumor Inoculation: Each mouse was inoculated subcutaneously at the right flank with OCI-LY10 or TMD8 tumor cells (10×10^6) in 0.2 mL of PBS with matrigel for tumor development. The treatments were started when the tumor sizes reached approximately 150-450 mm^3 for the studies.
Assignment to Groups: Before commencement of treatment, all animals were weighed and the tumor volumes were measured. Since the tumor volume can affect the compound PK/PD, mice are assigned into groups using an Excel-based randomization procedure performing stratified randomization based upon their tumor volumes.
Observation: After tumor inoculation, the animals were checked daily for morbidity and mortality. During routine monitoring, the animals were checked for any effects of tumor growth and treatments on behavior such as mobility, food and water consumption, body weight gain/loss, eye/hair matting and any other abnormalities. Mortality and observed clinical signs were recorded for individual animals in detail.
Data Collection: Tumor volumes were measured in two dimensions using a caliper, and the volumes were expressed in mm^3 using the formula: “V=(L×W×W)/2, where V is tumor volume, L is tumor length (the longest tumor dimension) and W is tumor width (the longest tumor dimension perpendicular to L).
At termination: At pre-determined time points based on study design, animals were humanely sacrificed by CO2. Blood was obtained by cardiac puncture for isolation of plasma, any residual tumor was removed and divided in 2 portions, 1 (minimal) for terminal compound exposure and 1 to determine IRAK4 and actin. Compound was determined in tumor and plasma using LC/MS with calibrated standards.

The next experiment relates to TNFα. Put plainly: Human whole blood LPS TNFα assay. The note with it: 20 h pretreatment, LPS 5 h, read-out: IRAK4 human whole blood LPS TNFa inhibition: Average external-IC50. The format is cell-based. An outline of the steps:
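Fresh human whole blood pretreated 20 h at 37 °C with compound (8-point, 5-fold dilution from 2 μM start), then stimulated with 100 ng/ml LPS (final) for 5 h. Plasma TNFα quantified by MSD V-plex, normalised to stimulated and unstimulated controls; IC50 from 4-parameter logistic fit.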

The target in another experiment is IRAK4 (Homo sapiens (Human), UniProt Q9NWZ3). The experiment in a line: IRAK4 degradation in OCI-LY10 (DC50). The format is cell-based.
The target in the next experiment is AIOLOS (Homo sapiens (Human), UniProt Q96SW2+Q9UKT9). The experiment in a line: AIOLOS degradation in OCI-LY10 (DC50). In kind it is cell-based.
A further experiment has as its system Wistar Strain rats. The experiment in a line: MSU induced gouty arthritis (knee inflammation) in rats. In kind it is in vivo. The note with it: prophylactic treatment, MSU-induced knee inflammation rat model. The method, then: The anti-inflammatory efficacy and pain reduction for prophylactic treatment in an MSU-induced knee inflammation rat model of human gout was evaluated. See Kou, Y-Y et al., Evid-Based Compl. Alt. (doi: http://dx.doi.org/10.1155/2015/527019).
Preparation of MSU crystals: 4 g uric acid is dissolved in 800 ml 0.03N NaOH and heated to 60° C. NaOH is added as required to maintain pH 8.9. The solution is stored overnight at 4-8° C. Crystals are filtered, washed and dried. Crystals are suspended in sterile saline just prior to use.
Efficacy Study: Receive and quarantine 70 Wistar Strain rats (male, 250-300 g). Following quarantine, rats are accepted for the Study if no signs of clinical distress are noted during the 3-day quarantine period. […] The rat weights are recorded. […] Baseline readings are taken on DAY −3. Baseline knee diameters are measured by digital caliper. Baseline responses to mechanical allodynia, as measured by von Frey fibers, are recorded. […]
DAY 1: Rats are weighed and dosed as in Table 14. One hour after dosing, mechanical allodynia and knee diameters are measured and recorded.
DAY 2: Rats are weighed and dosed as in Table 14 One hour after dosing, mechanical allodynia and knee diameters are measured and recorded. […]
Results are tabulated, graphed and statistically analyzed for anti-inflammatory efficacy and pain reduction.

Like-named read-outs stand apart in the source and are kept apart here. Where only a bound is given, the exact number is not on record here.

IRAK4, sequence (Q9NWZ3 whole entry): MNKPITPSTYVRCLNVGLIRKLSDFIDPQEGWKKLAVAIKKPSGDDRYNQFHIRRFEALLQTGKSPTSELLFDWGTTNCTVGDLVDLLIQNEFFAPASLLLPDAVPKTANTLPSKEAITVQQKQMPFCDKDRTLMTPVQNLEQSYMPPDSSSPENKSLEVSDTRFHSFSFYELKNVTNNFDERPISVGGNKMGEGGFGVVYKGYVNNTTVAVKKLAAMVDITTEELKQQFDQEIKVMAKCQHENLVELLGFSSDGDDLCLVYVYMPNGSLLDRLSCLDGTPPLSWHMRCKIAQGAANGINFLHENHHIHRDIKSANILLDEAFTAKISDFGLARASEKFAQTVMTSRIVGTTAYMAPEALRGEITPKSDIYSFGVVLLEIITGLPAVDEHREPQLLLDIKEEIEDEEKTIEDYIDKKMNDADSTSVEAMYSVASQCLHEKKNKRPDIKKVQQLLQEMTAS
AIOLOS, sequence (Q9UKT9 whole entry): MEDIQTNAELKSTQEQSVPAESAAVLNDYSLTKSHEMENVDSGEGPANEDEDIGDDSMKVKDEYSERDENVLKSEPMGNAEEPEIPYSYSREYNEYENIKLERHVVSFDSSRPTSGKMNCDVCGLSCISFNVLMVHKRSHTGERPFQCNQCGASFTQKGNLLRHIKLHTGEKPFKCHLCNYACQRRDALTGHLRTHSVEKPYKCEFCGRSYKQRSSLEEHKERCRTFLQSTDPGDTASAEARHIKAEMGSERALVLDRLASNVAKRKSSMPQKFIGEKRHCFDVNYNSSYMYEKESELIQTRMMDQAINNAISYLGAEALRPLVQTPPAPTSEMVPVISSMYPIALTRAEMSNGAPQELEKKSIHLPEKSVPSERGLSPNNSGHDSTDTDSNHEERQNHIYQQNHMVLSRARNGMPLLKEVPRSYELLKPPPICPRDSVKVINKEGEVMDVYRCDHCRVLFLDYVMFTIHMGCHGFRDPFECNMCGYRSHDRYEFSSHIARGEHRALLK
AIOLOS, sequence (Q96SW2 whole entry): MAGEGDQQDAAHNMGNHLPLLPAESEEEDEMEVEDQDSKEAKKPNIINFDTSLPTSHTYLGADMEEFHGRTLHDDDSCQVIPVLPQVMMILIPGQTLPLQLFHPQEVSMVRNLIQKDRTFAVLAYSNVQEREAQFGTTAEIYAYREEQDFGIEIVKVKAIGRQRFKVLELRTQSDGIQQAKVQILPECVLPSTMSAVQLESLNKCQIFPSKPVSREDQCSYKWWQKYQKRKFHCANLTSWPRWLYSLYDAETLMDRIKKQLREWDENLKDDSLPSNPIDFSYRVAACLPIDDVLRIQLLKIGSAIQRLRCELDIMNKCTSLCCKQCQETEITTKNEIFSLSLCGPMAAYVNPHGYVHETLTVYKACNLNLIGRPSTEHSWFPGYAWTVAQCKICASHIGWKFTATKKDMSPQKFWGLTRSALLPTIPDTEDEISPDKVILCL
AIOLOS, sequence (Q16531 whole entry partner): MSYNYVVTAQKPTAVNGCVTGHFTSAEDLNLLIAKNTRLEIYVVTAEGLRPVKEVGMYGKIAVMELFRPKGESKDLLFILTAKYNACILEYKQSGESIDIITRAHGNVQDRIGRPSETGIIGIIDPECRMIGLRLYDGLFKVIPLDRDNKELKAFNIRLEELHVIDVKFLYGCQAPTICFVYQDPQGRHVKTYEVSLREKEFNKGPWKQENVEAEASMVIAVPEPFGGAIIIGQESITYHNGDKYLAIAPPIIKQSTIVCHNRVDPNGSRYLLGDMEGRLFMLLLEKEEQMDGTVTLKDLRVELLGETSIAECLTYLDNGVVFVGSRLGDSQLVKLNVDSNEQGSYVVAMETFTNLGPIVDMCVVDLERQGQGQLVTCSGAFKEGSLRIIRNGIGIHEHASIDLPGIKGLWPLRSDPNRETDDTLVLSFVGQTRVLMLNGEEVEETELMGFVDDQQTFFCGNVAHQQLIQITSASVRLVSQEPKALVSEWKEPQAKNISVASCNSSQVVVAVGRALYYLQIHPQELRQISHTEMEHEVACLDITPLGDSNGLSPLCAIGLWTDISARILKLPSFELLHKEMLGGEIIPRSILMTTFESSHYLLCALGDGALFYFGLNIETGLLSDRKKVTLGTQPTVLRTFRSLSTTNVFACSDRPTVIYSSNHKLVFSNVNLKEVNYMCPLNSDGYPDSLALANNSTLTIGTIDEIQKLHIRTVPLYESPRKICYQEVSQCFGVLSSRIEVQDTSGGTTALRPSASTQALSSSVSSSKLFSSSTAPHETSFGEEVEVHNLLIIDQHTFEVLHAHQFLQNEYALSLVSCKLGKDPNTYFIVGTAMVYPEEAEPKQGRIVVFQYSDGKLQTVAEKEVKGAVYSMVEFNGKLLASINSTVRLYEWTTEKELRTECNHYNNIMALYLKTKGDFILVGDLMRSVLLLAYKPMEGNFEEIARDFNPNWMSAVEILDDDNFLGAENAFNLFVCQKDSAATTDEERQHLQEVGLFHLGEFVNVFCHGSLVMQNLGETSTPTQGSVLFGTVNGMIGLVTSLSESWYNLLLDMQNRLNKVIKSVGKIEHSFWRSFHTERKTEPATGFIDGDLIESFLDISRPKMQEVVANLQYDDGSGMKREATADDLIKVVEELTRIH

By IC50 is commonly meant the concentration that inhibits the measured activity by half. For the molecule `CN(CCCOCCCc1cccc2c1n(C)c(=O)n2C1CCC(=O)NC1=O)C[C@H]1CC[C@H](n2cc(NC(=O)c3coc(-c4ccnc(NCC5CC5)c4)n3)c(C(F)F)n2)CC1` (mixture of isomers) [I-30, 2-[2-(Cyclopropylmethylamino)-4-pyridyl]-N-[3-(difluoromethyl)-1-[4-[[3-[3-[1-(2,6-dioxo-3-piperidyl)-3-methyl-2-oxo-benzimidazol-4-yl]propoxy]propyl-methyl-amino]methyl]cyclohexyl]pyrazol-4-yl] oxazole-4-carboxamide], in the experiment on OCI-LY10 tumor cells (FIG. 6 A-C), the “antitumor effect in OCI-LY10 xenograft” value is “causes tumor regression”. For the same molecule, in the experiment on OCI-LY10 tumor cells (OCI-LY10 (MYD88 L265P, CD79 mutant), combination of I-30 and ibrutinib at sub-optimal single agent concentrations, FIG. 13), the “in vivo tumor growth inhibition, combination with ibrutinib” value is recorded as “synergistic in vivo tumor growth inhibition”. Further, the “in vivo tumor growth of implanted OCI-LY10 (MYD88 mutant) cells” value with OCI-LY10 tumor cells (PO BID administration, FIG. 7) was “inhibits in vivo tumor growth”. For the same molecule, the IC50 in the experiment with TNFα lay within 100 to 500 nM.
One may read the DC50 as the concentration giving 50% degradation. For the molecule `CN(C[C@H]1CC[C@H](n2cc(NC(=O)c3coc(-c4ccnc(NCC5CC5)c4)n3)c(C(F)F)n2)CC1)C1CCN(Cc2cccc3c2n(C)c(=O)n3C2CCC(=O)NC2=O)CC1` (some centres unmarked) [I-75, 2-(2-((cyclopropylmethyl)amino)pyridin-4-yl)-N-(3-(difluoromethyl)-1-((1r,4r)-4-(((1-((1-(2,6-dioxopiperidin-3-yl)-3-methyl-2-oxo-2,3-dihydro-1H-benzo[d]imidazol-4-yl)methyl)piperidin-4-yl)(methyl)amino)methyl)cyclohexyl)-1H-pyrazol-4-yl)oxazole-4-carboxamide], the “antitumor activity against OCI-LY10, oral dosing” value with OCI-LY10 tumor cells (xenograft-bearing mice, FIG. 14) is listed as “dose-dependent antitumor activity”. Moreover, the DC50 at IRAK4 (read-out: IRAK4 Degradation in OCI-LY10, DC50) was 8 nM; at IRAK4 (read-out: IRAK4 OCI-LY10 DC50), 8 nM; on AIOLOS, above 100 nM. Moreover, the knee joint swelling entry in the experiment with Wistar Strain rats (FIG. 17 A) is “decreasing knee joint swelling”. For the same molecule, the pain sensitivity result with Wistar Strain rats (FIG. 17 B) is “analgesic effect”. For the same molecule, in the experiment on TNFα, the concentration for half-maximal inhibition (IC50) is above 1000 nM.
